Data from publication PMC6025358 (Marine Drugs, 2018).

Target: rat α3β4 nAChR (Rattus norvegicus, UniProt P04757+P12392)
Assay: cell-based
Conditions: for inhibition at 0.1 µM / inhibition at 1 µM: read-out: Inhibition of ACh-evoked α3β4 nAChR-mediated current

Chain of rat α3β4 nAChR (P04757 26-499 limits assumed): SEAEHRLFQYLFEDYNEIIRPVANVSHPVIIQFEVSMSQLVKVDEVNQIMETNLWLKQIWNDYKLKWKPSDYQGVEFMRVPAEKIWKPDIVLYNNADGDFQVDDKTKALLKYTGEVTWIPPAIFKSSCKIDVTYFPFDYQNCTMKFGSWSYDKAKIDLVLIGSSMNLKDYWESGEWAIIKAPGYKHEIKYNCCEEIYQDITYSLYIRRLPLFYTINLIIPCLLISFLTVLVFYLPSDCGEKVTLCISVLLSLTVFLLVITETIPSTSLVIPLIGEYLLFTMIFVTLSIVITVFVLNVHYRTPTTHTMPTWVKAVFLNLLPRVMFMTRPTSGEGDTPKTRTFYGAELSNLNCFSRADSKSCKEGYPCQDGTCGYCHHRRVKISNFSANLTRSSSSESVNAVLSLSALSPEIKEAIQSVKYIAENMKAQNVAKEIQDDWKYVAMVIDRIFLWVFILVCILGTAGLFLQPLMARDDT
Chain of rat α3β4 nAChR (P12392 21-495 limits assumed): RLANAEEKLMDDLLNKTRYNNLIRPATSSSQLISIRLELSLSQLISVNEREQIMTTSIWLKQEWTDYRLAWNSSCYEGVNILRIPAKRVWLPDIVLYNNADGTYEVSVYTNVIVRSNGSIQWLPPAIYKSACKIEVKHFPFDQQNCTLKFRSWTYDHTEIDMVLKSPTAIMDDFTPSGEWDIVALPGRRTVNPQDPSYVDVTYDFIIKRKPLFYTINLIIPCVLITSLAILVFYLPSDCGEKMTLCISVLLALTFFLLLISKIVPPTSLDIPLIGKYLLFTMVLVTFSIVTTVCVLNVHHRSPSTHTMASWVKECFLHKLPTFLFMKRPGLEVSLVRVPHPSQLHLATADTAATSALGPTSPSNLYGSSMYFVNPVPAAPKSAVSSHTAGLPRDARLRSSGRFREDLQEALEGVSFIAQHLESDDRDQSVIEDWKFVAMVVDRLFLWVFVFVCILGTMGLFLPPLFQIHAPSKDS

SMILES	inhibition at 0.1 µM [%]	inhibition at 1 µM [%]	IC50 [nM]
CC[C@H](C)[C@@H]1NC(=O)[C@@H]2CCCN2C(=O)[C@H](CO)NC(=O)[C@H](CCSC)NC(=O)[C@H](C)NC(=O)[C@H](CO)NC(=O)[C@@H]2CSSC[C@H](NC(=O)CN)C(=O)N[C@@H](CSSC[C@@H](C(N)=O)NC1=O)C(=O)N[C@@H](CO)C(=O)N[C@@H](Cc1c[nH]cn1)C(=O)N1CCC[C@H]1C(=O)N[C@@H](C(C)C)C(=O)N2 [TxID]	~80	~100	–
CC[C@H](C)[C@@H]1NC(=O)[C@@H]2CCCN2C(=O)[C@H](CO)NC(=O)[C@H](CC[S+](C)[O-])NC(=O)[C@H](C)NC(=O)[C@H](CO)NC(=O)[C@@H]2CSSC[C@H](NC(=O)CN)C(=O)N[C@@H](CSSC[C@@H](C(N)=O)NC1=O)C(=O)N[C@@H](CO)C(=O)N[C@@H](Cc1c[nH]cn1)C(=O)N1CCC[C@H]1C(=O)N[C@@H](C(C)C)C(=O)N2 (some centres unmarked) [[MO]TxID]	25	72	245
